Results taken from ChEMBL document CHEMBL4673228, “Futunamine, a Pyrrole-Imidazole Alkaloid from the Sponge Stylissa aff. carteri Collected off the Futuna Islands” (J Nat Prod, 2020).
Activity calls are given as the source filed them. The rule behind the calls is not given here.

Experiments:
SH-SY5Y [1] = assay: Neuroprotective activity against TBHP-induced human SH-SY5Y cells assessed as decrease in ROS production at 1 uM after 6 hrs by DCFH-DA dye based spectrophotometric assay relative to control; format: functional; design: scale not given: the % may be the effect or the level left
SH-SY5Y [2] = assay: Neuroprotective activity against TBHP-induced cytotoxicity in human SH-SY5Y cells assessed as increase in cell viability at 0.001 uM after 6 hrs by MTT assay; format: functional, cell-based
BV-2 [3] = assay: Inhibition of LPS-induced NO production in mouse BV-2 cells at 0.1 to 1 uM preincubated for 1 hrs followed by LPS-stimulation and measured after 24 hrs by Griess reagent based spectrophotometric assay; format: functional, cell-based; details: dose 0.1-1 µM
BV-2 [4] = assay: Cytotoxicity against mouse BV-2 cells assessed as reduction in cell viability at 0.001 to 10 uM after 24 hrs by MTT assay; format: cell-based; details: bv-2, 24 h, dose 0.001-10 µM
SH-SY5Y [5] = assay: Cytotoxicity against human SH-SY5Y cells assessed as reduction in cell viability at 0.001 to 10 uM after 24 hrs by MTT assay; format: cell-based; details: dose 0.001-10 µM
SH-SY5Y [6] = assay: Neuroprotective activity against TBHP-induced human SH-SY5Y cells assessed as decrease in ROS production at 0.001 to 10 uM after 6 hrs by DCFH-DA dye based spectrophotometric assay relative to control; format: functional; design: scale not given: the % may be the effect or the level left; details: dose 0.001-10 µM
SH-SY5Y [7] = assay: Neuroprotective activity against TBHP-induced cytotoxicity in human SH-SY5Y cells assessed as increase in cell viability at 10 uM after 6 hrs by MTT assay; format: functional, cell-based

SMILES: Nc1nc(/C=C/CNC(=O)c2cc(Br)c[nH]2)c[nH]1
- Activity (SH-SY5Y [1]): >25%
- Activity (SH-SY5Y [2]): Active
- inhibition (BV-2 [3]): Active
- Activity (BV-2 [4]): Non-Toxic
- Activity (SH-SY5Y [5]): Non-Toxic

SMILES: NC1=N[C@]2([C@H](O)N1)[C@@H](Cl)[C@H](CNC(=O)c1cc(Br)c(Br)[nH]1)[C@H]1CN3C(=O)c4cccn4[C@@H]4N=C(N)N[C@@]43[C@@H]12.O=C(O)C(F)(F)F.O=C(O)C(F)(F)F
- inhibition (BV-2 [3]): Active
- Activity (SH-SY5Y [6]): 35%
- Activity (BV-2 [4]): Non-Toxic
- Activity (SH-SY5Y [5]): Non-Toxic

SMILES: C[C@]1(COC(=O)c2cc(Br)c[nH]2)C[C@@H](C(=O)O)N=CN1 [MANZACIDIN A]
- Activity (SH-SY5Y [1]): >25%
- Activity (SH-SY5Y [2]): Active
- Activity (BV-2 [4]): Non-Toxic
- Activity (SH-SY5Y [5]): Non-Toxic

SMILES: Nc1ncc(/C=C/CNC(=O)c2cc(Br)c(Br)[nH]2)[nH]1 [OROIDIN]
- Activity (SH-SY5Y [2]): Active
- Activity (BV-2 [4]): Non-Toxic
- Activity (SH-SY5Y [5]): Non-Toxic

SMILES: Nc1nc([C@H]2[C@H](CNC(=O)c3cc(Br)c(Br)[nH]3)/C(=C\CNC(=O)c3ccc[nH]3)c3cnc(N)n32)c[nH]1
- Activity (SH-SY5Y [7]): Active
- Activity (SH-SY5Y [6]): 35%
- Activity (BV-2 [4]): Non-Toxic
- Activity (SH-SY5Y [5]): Non-Toxic

SMILES: NC1=N[C@]2([C@H](O)N1)[C@@H](Cl)[C@H](CNC(=O)c1cc(Br)c(Br)[nH]1)[C@H]1CN3C(=O)c4[nH]ccc4[C@@H]4N=C(N)N[C@@]43[C@@H]12.O=C(O)C(F)(F)F.O=C(O)C(F)(F)F
- Activity (BV-2 [4]): Non-Toxic
- Activity (SH-SY5Y [5]): Non-Toxic
